Consider 6 molecules from patent US20100311736A1, “PYRIDOSULFONAMIDE DERIVATIVES AS P13 KINASE INHIBITORS” (GlaxoSMithKline LLC, priority 2007, published 2010).

One assay concerns the target T1, PI3Kα (Homo sapiens, UniProt P42336).
T1 construct: His; made in house
Briefly: PI3K alpha enzyme inhibition (TR-FRET assay / Leadseeker SPA assay). The format is biochemical. The note with it: in at least one experimental run; read-out: IC50 against PI3Kα. The procedure: Compounds of the present invention were tested according to the following assays and found as inhibitors of PI3 kinases, particularly PI3Kα. The exemplified compounds were tested and found active against PI3Kα. The IC50's ranged from about 1 nM to 10 μM.
The PI3-Kinase assay has been developed and optimized from a kit produced by Upstate (Millipore). Briefly, this kit contains a biotinylated PIP3 which forms a HTRF (homogeneous time-resolved fluorescence energy transfer) complex when mixed with a Europium labeled anti-GST monoclonal antibody, a GST tagged pleckstrin homology (PH) domain, and Streptavidin-Allophycocyanin (APC). The unlabeled PIP3 produced by PI 3-Kinase activity displaces biotin-PIP3 from the complex resulting in a loss of energy transfer and thus a decrease in signal. Millipore, PI 3-Kinase (human) HTRF™ Assay, technical document associated with catalog #33-017
Compounds are serially diluted (3-fold in 100% DMSO) across a polypropylene 120 μL mother plate from column 1 to column 12 and column 13 to column 24, leaving columns 6 and 18 containing only DMSO to yield 11 concentrations for each test compound. Once titrations are made, 0.1 μL is transferred to the assay plates (Greiner 784075). This assay plate contains three controls: column 6 with DMSO, and column 18 with alternating 20 μM wortmannin and 40 μM PIP3. […] The PIP3 control is dispensed into the plate manually via a matrix pipettor, 1 μL of 200 μM PIP3 in 1× Reaction buffer to wells 18 B, D, F, H, J, L, N, P.
The PI3-Kinase assay has been developed and optimized from a kit produced by Upstate (Millipore). The assay kit (cat: 33-017) contains seven reagents: 1) 4× Reaction Buffer, 2) PIP2 (1 mM), 3) Stop A, 4) Stop B, 5) Detection Mix A, 6) Detection Mix B, 7) Detection Mix C. In addition the following items were obtained or purchased, PI3Kinase (prepared in-house), 4× PI3K Detection Buffer (Millipore), dithiothreitol (Sigma, D-5545), Adenosine-5′-triphosphate (ATP, Sigma, A-6419), PIP3 (1,2-dioctanoyl-sn-glycero-3-[phosphoinositil-3,4,5-triphosphate]tetraammonium salt (Avanti polar lipids, 850186P), DMSO (Sigma, 472301), Wortmannin (Sigma, W-1628).
Prepare 1× PI3Kinase Reaction Buffer by diluting stock 1:4 with de-ionized water, freshly prepared DTT is added at a final concentration of 5 mM on the day of use. Enzyme addition and compound preincubation is initiated by the addition of 2.5 μL of 2× enzyme solution, PI3K alpha in 1× reaction buffer, to all wells using a Multidrop Combi. Plates are incubated at room temperature for 15 minutes. Substrate addition and reaction initiation is completed by the addition of 2.5 μL of 2× substrate solution, PIP2 and ATP in 1× reaction buffer, to all wells using a Multidrop Combi. […] Incubate one hour, evaluate the HTRF signal on the Envision plate reader. […]
Background: TR-FRET usually uses a lanthanide donor and a delayed reading to cut background.

The next assay concerns Class I PI3-kinases. Particulars: cited from earlier work.
For the next assay, the target named is CK2 protein kinase (Homo sapiens, UniProt P68400). The note with it: background statement; cited from earlier work.
CK2 protein kinase, sequence (P68400 whole entry): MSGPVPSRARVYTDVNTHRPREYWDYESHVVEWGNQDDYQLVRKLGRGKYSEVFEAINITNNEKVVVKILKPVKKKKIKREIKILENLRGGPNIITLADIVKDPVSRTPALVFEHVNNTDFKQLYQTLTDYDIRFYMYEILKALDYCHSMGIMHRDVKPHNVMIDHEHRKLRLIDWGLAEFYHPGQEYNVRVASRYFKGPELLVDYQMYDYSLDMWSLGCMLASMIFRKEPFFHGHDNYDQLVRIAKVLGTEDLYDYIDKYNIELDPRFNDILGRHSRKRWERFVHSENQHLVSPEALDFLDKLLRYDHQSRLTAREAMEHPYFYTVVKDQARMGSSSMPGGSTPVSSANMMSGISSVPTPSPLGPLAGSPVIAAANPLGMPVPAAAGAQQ

The structures appear in SMILES notation. Where two headings read alike, the source gives them in different places.

T1 sequence (P42336 whole entry): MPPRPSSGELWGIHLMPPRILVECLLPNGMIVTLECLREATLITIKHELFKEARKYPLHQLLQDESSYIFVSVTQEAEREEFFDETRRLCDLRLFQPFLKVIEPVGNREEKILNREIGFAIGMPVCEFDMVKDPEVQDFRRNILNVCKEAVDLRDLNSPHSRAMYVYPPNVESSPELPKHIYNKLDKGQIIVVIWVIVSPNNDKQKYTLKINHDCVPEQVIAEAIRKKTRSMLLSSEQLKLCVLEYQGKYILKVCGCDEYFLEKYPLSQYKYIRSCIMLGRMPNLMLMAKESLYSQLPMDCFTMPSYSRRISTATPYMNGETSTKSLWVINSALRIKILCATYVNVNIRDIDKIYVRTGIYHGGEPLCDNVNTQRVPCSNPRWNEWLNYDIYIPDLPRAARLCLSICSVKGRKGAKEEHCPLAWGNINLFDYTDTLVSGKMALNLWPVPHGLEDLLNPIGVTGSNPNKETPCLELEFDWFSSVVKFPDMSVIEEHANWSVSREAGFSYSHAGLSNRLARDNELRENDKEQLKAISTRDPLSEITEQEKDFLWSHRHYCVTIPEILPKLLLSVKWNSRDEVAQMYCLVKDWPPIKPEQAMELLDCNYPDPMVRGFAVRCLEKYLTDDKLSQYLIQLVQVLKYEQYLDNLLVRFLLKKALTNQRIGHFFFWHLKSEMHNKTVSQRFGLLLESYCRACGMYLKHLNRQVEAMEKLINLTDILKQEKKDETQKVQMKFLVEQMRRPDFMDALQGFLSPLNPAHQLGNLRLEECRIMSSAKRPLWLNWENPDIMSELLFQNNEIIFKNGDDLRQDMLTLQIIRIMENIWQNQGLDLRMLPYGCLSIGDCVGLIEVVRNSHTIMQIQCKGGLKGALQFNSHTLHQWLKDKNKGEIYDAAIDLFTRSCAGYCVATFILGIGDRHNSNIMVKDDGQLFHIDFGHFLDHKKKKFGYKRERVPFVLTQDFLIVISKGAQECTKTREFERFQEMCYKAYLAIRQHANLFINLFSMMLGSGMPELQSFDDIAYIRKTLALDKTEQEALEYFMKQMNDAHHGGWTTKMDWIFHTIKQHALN
T1 sequence (P27986 whole entry partner): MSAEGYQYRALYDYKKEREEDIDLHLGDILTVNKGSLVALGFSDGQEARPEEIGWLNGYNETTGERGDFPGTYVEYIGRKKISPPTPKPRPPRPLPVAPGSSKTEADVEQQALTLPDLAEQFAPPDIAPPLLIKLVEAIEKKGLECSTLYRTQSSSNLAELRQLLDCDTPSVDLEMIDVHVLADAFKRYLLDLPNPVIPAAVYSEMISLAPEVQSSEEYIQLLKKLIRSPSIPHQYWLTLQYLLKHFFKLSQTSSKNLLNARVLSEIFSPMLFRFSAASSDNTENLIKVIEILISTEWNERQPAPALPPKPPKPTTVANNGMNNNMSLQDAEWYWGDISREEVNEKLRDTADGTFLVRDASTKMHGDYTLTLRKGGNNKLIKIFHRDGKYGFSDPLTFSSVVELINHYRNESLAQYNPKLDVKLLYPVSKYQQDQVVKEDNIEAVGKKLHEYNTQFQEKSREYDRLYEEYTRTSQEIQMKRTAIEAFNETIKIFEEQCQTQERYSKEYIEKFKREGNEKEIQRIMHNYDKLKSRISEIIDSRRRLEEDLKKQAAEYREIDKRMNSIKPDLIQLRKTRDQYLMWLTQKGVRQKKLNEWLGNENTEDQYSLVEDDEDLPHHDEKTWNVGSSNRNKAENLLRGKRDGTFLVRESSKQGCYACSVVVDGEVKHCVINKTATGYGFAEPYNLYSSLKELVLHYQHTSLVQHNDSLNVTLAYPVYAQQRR

In general, IC50 refers to the concentration at which inhibition is half-maximal. In the case of `O=S(=O)(Nc1cc(-c2cn[nH]c2)cnc1Cl)c1ccccc1` [Example 22, N-[2-chloro-5-(1H-pyrazol-4-yl)-3-pyridinyl]benzenesulfonamide], the IC50 at PI3Kα was found to be 316 nM.

As for `O=S(=O)(Nc1cc(-c2ccc3ccccc3c2)cnc1Cl)c1ccccc1` [Example 27, N-[2-chloro-5-(2-naphthalenyl)-3-pyridinyl]benzenesulfonamide], the concentration for half-maximal inhibition (IC50) at PI3Kα was found to be 631 nM.

In the case of `CNc1ncc(-c2cnc(Cl)c(NS(=O)(=O)c3ccccc3)c2)cn1` [Example 29, N-{2-chloro-5-[2-(methylamino)-5-pyrimidinyl]-3-pyridinyl}benzenesulfonamide], the IC50 on PI3Kα worked out at 100 nM.

On to `O=S(=O)(Nc1cc(-c2ccc3nccn3c2)cnc1Cl)c1ccccc1` [Example 35, N-(2-chloro-5-imidazo[1,2-a]pyridin-6-yl-3-pyridinyl)benzenesulfonamide], for which the half-maximal inhibitory concentration (IC50) at PI3Kα turned out to be 13 nM.

Regarding `O=c1cc(N2CCOCC2)oc2c(-c3ccccc3)cccc12` [LY294002], the IC50 with Class I PI3-kinases (Fruman et al. 1998, read-out: IC50 against each of these PI3-kinases) was 15 to 20 µM; at CK2 protein kinase, 5 to 10 µM.

Take `COC[C@H]1OC(=O)c2coc3c2[C@@]1(C)C1=C(C3=O)[C@@H]2CCC(=O)[C@@]2(C)C[C@H]1OC(C)=O` [wortmannin]: the IC50 in the assay with Class I PI3-kinases (wortmannin, background statement, read-out: IC50 against each of the various Class I PI3-kinases) is 0.001 to 0.01 µM.
